The source of these data is US20020099070A1, “Dihydronaphthyridine potassium channel openers” (priority 2000, published 2002).

The subject of the test is primary cultured guinea-pig urinary bladder (GPB) cells. Nature of the test: Membrane hyperpolarization (MHP) assay, DiBAC(4)3 / FLIPR. Format: cell-based. The settings on record: for Emax / Maximal Response (% P1075): maximal steady-state hyperpolarization, normalized to 10 μM P1075 = 100%; for Emax: read-out: Maximal Response (% P1075); for EC50: membrane hyperpolarization in GPB cells. The procedure:
Compounds were evaluated for potassium channel opening activity using primary cultured guinea-pig urinary bladder (GPB) cells.
For the preparation of urinary bladder smooth muscle cells, urinary bladders were removed from male guinea-pigs (Hartley, Charles River, Wilmington, Mass.) weighing 300-400 g and placed in ice-cold Ca^2+-free Krebs solution (Composition, mM: KCl, 2.7; KH2PO4, 1.5; NaCl, 75; Na2HPO4, 9.6; Na2HPO4.7H2O, 8; MgSO4, 2; glucose, 5; HEPES, 10; pH 7.4). Cells were isolated by enzymatic dissociation as previously described with minor modifications in Klockner, U. and Isenberg, G., Pflugers Arch. 1985, 405, 329-339, hereby incorporated by reference. The bladder was cut into small sections and incubated in 5 mL of the Kreb's solution containing 1 mg/mL collagenase (Sigma, St. Louis, Mo.) and 0.2 mg/mL pronase (Calbiochem, La Jolla, Calif.) with continuous stirring in a cell incubator for 30 minutes. The mixture was then centrifuged at 1300×g for 5 minutes, and the pellet resuspended in Dulbecco's PBS (GIBCO, Gaithersburg, Md.) and recentrifuged to remove residual enzyme. The cell pellet was resuspended in 5 mL growth media (composition: Dulbecco's modified Eagle's medium supplemented with 10% fetal bovine serum, 100 units/mL penicillin, 100 units/mL streptomycin and […] amphotericin B) and further dissociated by pipetting the suspension through a flame-polished Pasteur pipette and passing it through a polypropylene mesh membrane (Spectrum, Houston, Tex.). The cell density was adjusted to 100,000 cells/mL by resuspension in growth media. Cells were plated in clear-bottomed black 96-well plates (Packard) for membrane potential studies at a density of 20,000 cells/well and maintained in a cell incubator with 90% air: 10% CO2 until confluent. Cells were confirmed to be of smooth muscle type by cytoskeletal staining using a monoclonal mouse anti human-α-smooth muscle actin (Biomeda, Foster City, Calif.).
Functional activity at potassium channels was measured by evaluating changes in membrane potential using the bis-oxonol dye DiBAC(4)3 (Molecular Probes) in a 96-well cell-based kinetic assay system, Fluorescent Imaging Plate Reader (FLIPR) (K. S. Schroeder et al., J. Biomed. Screen., v. 1 pp. 75-81 (1996)), hereby incorporated by reference. DiBAC(4)3 is an anionic potentiometric probe which partitions between cells and extracellular solution in a membrane potential-dependent manner. With increasing membrane potential (for example, K^+ depolarization), the probe fuither partitions into the cell; this is measured as an increase in fluorescence due to dye interaction with intracellular lipids and proteins. Conversely, decreasing membrane potential (hyperpolarization by potassium channel openers) evokes a decrease in fluorescence.
Confluent guinea-pig urinary bladder cells cultured in black clear-bottomed 96-well plates were rinsed twice with […] assay buffer (composition, mM: HEPES, 20; NaCl, 120; KCl, 2; CaCl2, 2; MgCl2, 1; glucose, 5; pH 7.4 at 25° C.) containing 5 μM DiBAC(4)3 and incubated with […] of the buffer in a cell incubator for 30 minutes at 37° C. to ensure dye distribution across the membrane. After recording the baseline fluorescence for 5 minutes, the reference or test compounds, prepared at 10 times the concentration in the assay buffer, were added directly to the wells. Changes in fluorescence were monitored for an additional 25 minutes. Hyperpolarization responses were corrected for any background noise and were normalized to the response observed with 10 μM of the reference compound P1075, N″-cyano-N-(tert-pentyl)-N′-(3-pyridinyl)guanidine, which was assigned as 100%. P1075 is a potent opener of smooth muscle KATP channels (Quast et al., Mol. Pharmacol., v. 43 pp. 474-481 (1993)) and was prepared using the procedures described in (Manley, J. Med. Chem. (1992) 35, 2327-2340), hereby incorporated by reference. […]

The EC50 is the midpoint of the concentration-response curve.

Regarding `O=C1NCCC2=C1C(c1ccc(F)c(Br)c1)C(C(=O)c1ccccc1)=C(c1ccccc1)N2` (stereo not drawn) [Example 20, 3-benzoyl-4-(3-bromo-4-fluorophenyl)-2-phenyl-4,6,7,8-tetrahydro[1,6]naphthyridin-5(1H)-one], under “Cavia porcellus”, the Emax was 51% and the midpoint of the response, the EC50, lay at 18000 nM.
The corresponding values for `CC1=C(C#N)C(c2ccc(Cl)c(C(F)(F)F)c2)C2=C(CCNC2=O)N1` (stereo not drawn) [Example 16, 4-[4-chloro-3-(trifluoromethyl)phenyl]-3-cyano-2-methyl-4,6,7,8-tetrahydro[1,6]naphthyridin-5(1H)-one] are 109% and 180 nM.
On to `CC1=C(C#N)C(c2ccc(Cl)c([N+](=O)[O-])c2)C2=C(CCNC2=O)N1` (stereo not drawn) [Example 10, 4-(4-chloro-3-nitrophenyl)-3-cyano-2-methyl-4,6,7,8-tetrahydro[1,6]naphthyridin-5(1H)-one], for which, where the note is “Cavia porcellus”, the Emax worked out at 110% and the EC50 is 140 nM.
As for `CC1=C(C#N)C(c2ccc(F)c(Cl)c2)C2=C(CCNC2=O)N1` (stereo not drawn) [Example 15, 4-(3-chloro-4-fluorophenyl)-3-cyano-2-methyl-4,6,7,8-tetrahydro[1,6]naphthyridin-5(1H)-one], for the setting “Cavia porcellus”, the Emax amounted to 102% and the EC50 came out at 110 nM.
On to `COC(=O)C1=C(C)NC2=C(C(=O)OCC2)C1c1ccc(F)c(C(F)(F)F)c1` (stereo not drawn) [Example 30, 4-[4-fluoro-3-(trifluoromethyl)phenyl]-3-methoxycarbonyl-2-methyl-1,4,7,8-tetrahydro-5H-pyrano[4,3-b]pyridin-5-one], for which, under “Cavia porcellus”, the Emax was 52% and the EC50 was found to be 4000 nM.
For `CC1=C(C#N)C(c2ccc(Br)c(Br)c2)C2=C(CCNC2=O)N1` (stereo not drawn) [Example 11, 4-(3,4-dibromophenyl)-3-cyano-2-methyl-4,6,7,8-tetrahydro[1,6]naphthyridin-5(1H)-one], for the setting “Cavia porcellus”, the Emax was found to be 105% and the EC50 stood at 23 nM.
For `CC(=O)C1=C(C)Nc2cc[nH]c(=O)c2C1c1ccc(F)c(Br)c1` (racemic) [Example 18, 3-acetyl-4-(3-bromo-4-fluorophenyl)-2-methyl-4,6-dihydro[1,6]naphthyridin-5(1H)-one], where the note is “Cavia porcellus”, the Emax came out at 83% and the EC50 came to 740 nM.
With `CC1=C(C#N)C(c2ccc(F)c(Br)c2)c2c(cc[nH]c2=O)N1` (racemic) [Example 4, 4-(3-bromo-4-fluorophenyl)-3-cyano-2-methyl-4,6-dihydro[1,6]naphthyridin-5(1H)-one], where the note is “Cavia porcellus”, the Emax came to 92% and the response was half-maximal at 13 nM (EC50).
Taken in the same sequence, the figures for `CC(=O)C1=C(C)NC2=C(C(=O)NCC2)C1c1ccc(F)c(Br)c1` (stereo not drawn) [Example 17, 3-acetyl-4-(3-bromo-4-fluorophenyl)-2-methyl-4,6,7,8-tetrahydro[1,6]naphthyridin-5(1H)-one] were 45% and 14000 nM.
Take `CC1=C(C#N)C(c2ccc(Cl)c(Cl)c2)C2=C(CCNC2=O)N1` (stereo not drawn) [Example 8, 4-(3,4-dichlorophenyl)-3-cyano-2-methyl-4,6,7,8-tetahydro[1,6]naphthyridin-5(1H)-one]: the “Maximal Response (% P1075)” value is reported as 97 % P1075 and the EC50 came to 38 nM.
For `CC1=C(C#N)C(c2ccc(F)c(Br)c2)C2=C(CCNC2=O)N1` (racemic) [Example 1, 4-(3-bromo-4-fluorophenyl)-3-cyano-2-methyl-4,6,7,8-tetrahydro[1,6]naphthyridin-5(1H)-one], for the setting “Cavia porcellus”, the Emax was found to be 83% and the EC50 turned out to be 52 nM.
On to `CC1=C(C#N)C(c2ccc(F)c(Br)c2)C2=C(CCOC2=O)N1` (stereo not drawn) [Example 28, 4-(3-bromo-4-fluorophenyl)-3-cyano-2-methyl-1,4,7,8-tetrahydro-5H-pyrano[4,3-b]pyridin-5-one], for which, under “Cavia porcellus”, the Emax came to 82% and the EC50 worked out at 22 nM.
With `CC1=C(C#N)C(c2cccc([N+](=O)[O-])c2)C2=C(CCNC2=O)N1` (stereo not drawn) [Example 9, 4-(3-nitrophenyl)-3-cyano-2-methyl-4,6,7,8-tetrahydro[1,6]naphthyridin-5(1H)-one], for the setting “Cavia porcellus”, the Emax came to 106% and the EC50 came out at 620 nM.
Turning to `CC1=C(C#N)C(c2ccc(F)c(Br)c2)C2=C(CCNC2=O)N1` (stereo not drawn) [Example 3, 4-(3-bromo-4-fluorophenyl)-3-cyano-2-methyl-4 6,7,8-tetrahydro[1,6]naphthyridin-5(1H)-one], the “Maximal Response (% P1075)” value was found to be 78 % P1075 and the EC50 is 2500 nM.
Take `CC1=C(C#N)C(c2ccc(F)c(F)c2)C2=C(CCNC2=O)N1` (stereo not drawn) [Example 12, 4-(3,4-difluorophenyl)-3-cyano-2-methyl-4,6,7,8-tetrahydro[1,6]naphthyridin-5(1H)-one]: for the setting “Cavia porcellus”, the Emax turned out to be 89% and the EC50 was 890 nM.
Taken in the same sequence, the figures for `COC(=O)C1=C(C)Nc2ccnc(Cl)c2C1c1ccc(F)c(Br)c1` (stereo not drawn) [Example 31, 4-(3-bromo-4-fluorophenyl)-5-chloro-3-(methoxycarbonyl)-2-methyl-1,4-dihydro[1,6]naphthyridine] were 93% and 39 nM.
With `CC1=C(C#N)C(c2cc(F)c(F)cc2F)C2=C(CCNC2=O)N1` (stereo not drawn) [Example 14, 4-(2,4,5-trifluorophenyl)-3-cyano-2-methyl-4,6,7,8-tetrahydro[1,6]naphthyridin-5(1H)-one], under “Cavia porcellus”, the Emax came out at 84% and the response was half-maximal at 2600 nM (EC50).
`CC(=O)C1=C(C)Nc2cc[nH]c(=O)c2C1c1ccc(F)c(Br)c1` (stereo not drawn) [Example 19, 3-acetyl-4-(3-bromo-4-fluorophenyl)-2-methyl-4,6-dihydro[1,6]naphthyridin-5(1H)-one]: for the setting “Cavia porcellus”, the Emax came to 104% and the EC50 worked out at 620 nM.
Consider `CC1=C(C#N)C(c2ccc(F)c(Br)c2)c2c(ccnc2Cl)N1` (racemic) [Example 32, 4-(3-bromo-4-fluorophenyl)-5-chloro-3-cyano-2-methyl-1,4-dihydro[1,6]naphthyridine], for which, where the note is “Cavia porcellus”, the Emax came to 91% and it took 4 nM to reach a half-maximal effect (EC50).
In the case of `CC1=C(C#N)C(c2ccc(F)c(C(F)(F)F)c2)C2=C(CCNC2=O)N1` (stereo not drawn) [Example 13, 4-[4-fluoro-3-(trifluoromethyl)phenyl]-3-cyano-2-methyl-4,6,7,8-tetrahydro[1,6]naphthyridin-5(1H)-one], for the setting “Cavia porcellus”, the Emax was determined as 99% and the EC50 came to 350 nM.
For the molecule `COC(=O)C1=C(C)NC2=C(C(=O)OCC2)C1c1ccc(F)c(Br)c1` (stereo not drawn) [Example 29, 4-(3-bromo-4-fluorophenyl)-3-methoxycarbonyl-2-methyl-1,4,7,8-tetrahydro-5H-pyrano[4,3-b]pyridin-5-one], under “Cavia porcellus”, the Emax is 81% and the EC50 was 19 nM.
